According to patent US5567692A, “9-[(substituted glycyl) amido)]-6-demethyl-6-deoxytetracyclines” (priority 1995, dated 1996):
Where a name gives a salt, the structure may show the parent alone.

Key:
Salmonella spp. = assay: MIC range, recent clinical and veterinary isolates; type: cell-based; details: 18 h, [11] isolates
Enterobacter cloacae = assay: MIC range, recent clinical and veterinary isolates; type: cell-based; details: 18 h, [10] isolates, read-out: MIC Range
Enterococcus faecalis = assay: MIC range, recent clinical and veterinary isolates; type: cell-based; details: 18 h, read-out: MIC Range
Klebsiella pneumoniae = assay: MIC range, recent clinical and veterinary isolates; type: cell-based; details: 18 h, [10] isolates
Enterococcus 12201 = assay: MIC, agar dilution; type: cell-based; details: Enterococcus 12201
Clostridium difficile = assay: MIC range, recent clinical and veterinary isolates; type: cell-based; details: Clostridioides difficile, 18 h; Clostridium difficile, [12] isolates; read-out: MIC Range
Neisseria gonorrhoeae = assay: MIC range, recent clinical and veterinary isolates; type: cell-based; details: 18 h, [14] isolates
S. aureus SMITH (MP) = assay: MIC, agar dilution; type: cell-based; details: Staphylococcus aureus, 18 h; S. aureus SMITH (MP); read-out: MIC
[1] = tested on: X. maltophilia NEMC 87210; assay: MIC, agar dilution; type: cell-based; details: X. maltophilia NEMC 87210; dihydrochloride
[2] = tested on: Staphylococcus aureus, (methicillin-susceptible); assay: MIC range, recent clinical and veterinary isolates; type: cell-based; details: Staphylococcus aureus, 18 h, read-out: MIC Range
E. coli J3272 Tet D = assay: microbe, parasite or virus in culture; type: cell-based; details: dihydrochloride
Xanthamonas maltophilia = assay: MIC range, recent clinical and veterinary isolates; type: cell-based; details: 18 h, read-out: MIC Range
S. aureus ROSE (MP) = assay: MIC, agar dilution; type: cell-based; details: Staphylococcus aureus, 18 h, read-out: MIC
S. aureus UBMS 88-4 = assay: MIC, agar dilution; type: cell-based; details: Staphylococcus aureus, UBMS884, 18 h
Listeria monocytogenes = assay: MIC range, recent clinical and veterinary isolates; type: cell-based; details: 18 h, [8] isolates
[3] = tested on: S. aureus UBMS 88-7 Tet K; assay: microbe, parasite or virus in culture; type: cell-based; details: dihydrochloride
Streptococcus agalactiae = assay: MIC range, recent clinical and veterinary isolates; type: cell-based; details: 18 h, read-out: MIC Range
[4] = tested on: Pasturella multocida (Veterinary); assay: MIC range, recent clinical and veterinary isolates; type: cell-based; details: 18 h, [17] isolates
Morganella morganii = assay: MIC range, recent clinical and veterinary isolates; type: cell-based; details: 18 h, [16] isolates
Citrobacter freundii = assay: MIC range, recent clinical and veterinary isolates; type: cell-based; details: 18 h, [10] isolates, read-out: MIC Range
[5] = tested on: Escherichia coli UBMS 90-4 (Tet M); assay: Acute lethal infection in mice, E. coli UBMS 90-4; details: in Mus musculus, iv, 168 h
[6] = tested on: Ps. aeruginosa ATCC 27853; assay: MIC, agar dilution; type: cell-based; details: Ps. aeruginosa ATCC 27853; dihydrochloride
[7] = tested on: Bacteroides fragilis group; assay: MIC range, recent clinical and veterinary isolates; type: cell-based; details: Bacteroides fragilis, 18 h, read-out: MIC Range
E. coli J2175 = assay: MIC, agar dilution; type: cell-based
S. marcescens FPOR 8733 = assay: MIC, agar dilution; type: cell-based; details: dihydrochloride
Pseudomonas aeruginosa = assay: MIC range, recent clinical and veterinary isolates; type: cell-based; details: 18 h, [10] isolates, read-out: MIC Range
[8] = tested on: E. coli UBMS 89-2 Tet sens.; assay: MIC, agar dilution; type: cell-based; details: E. coli UBMS 89-2 Tet sens.

CN(C)CC(=O)Nc1ccc2c(c1O)C(=O)C1=C(O)[C@]3(O)C(=O)C(C(N)=O)=C(O)[C@@H](N(C)C)C3CC1C2 (stereo partly drawn) [CC, [4S-(4alpha,12aalpha)]-4-(Dimethylamino)-9-[[(dimethylamino)acetyl]amino]-1,4,4a,5,5a,6,11,12a-octahydro-3,10,12,12a-tetrahydroxy-1,11-dioxo-2-naphthacenecarboxamide dihydrochloride]
MIC (Salmonella spp.): 0.25 to 0.5 µg/mL | MIC (Enterobacter cloacae): 0.5 to 1 µg/mL | MIC (Enterococcus faecalis): 0.03 to 0.25 µg/mL | MIC (Klebsiella pneumoniae): 0.25 to 4 µg/mL | MIC (Enterococcus 12201): 0.03 µg/mL | MIC (Clostridium difficile): 0.06 to 0.12 µg/mL | MIC (Neisseria gonorrhoeae): 0.5 to 1 µg/mL | MIC (S. aureus SMITH (MP)): 0.03 µg/mL | MIC [1]: 1 µg/mL | MIC [2]: 0.06 to 0.25 µg/mL | MIC (E. coli J3272 Tet D): 0.03 µg/mL | MIC (Xanthamonas maltophilia): 1 to 8 µg/mL | MIC (S. aureus ROSE (MP)): 1 µg/mL | MIC (S. aureus UBMS 88-4): 0.03 µg/mL | MIC (Listeria monocytogenes): 0.06 to 0.12 µg/mL | MIC [3]: 0.5 µg/mL | MIC (Streptococcus agalactiae): 0.12 to 0.25 µg/mL | MIC [4]: 0.03 to 0.25 µg/mL | MIC (Morganella morganii): 0.5 to 1 µg/mL | MIC (Citrobacter freundii): 0.5 to 8 µg/mL | ED50 [5]: 1.6 mg/kg | MIC [6]: 4 µg/mL | MIC [7]: 0.12 to 2 µg/mL | MIC (E. coli J2175): 0.25 µg/mL | MIC (S. marcescens FPOR 8733): 2 µg/mL | MIC (Pseudomonas aeruginosa): 2 to 16 µg/mL | MIC [8]: 0.25 µg/mL
